Measured values as given in patent publication US6979664B1, “Composition for accelerating seed germination and plant growth” (Bios Agriculture Inc., priority 1998, dated 2005).

Experiments:
Assay type in all cases: in vivo
Zea mays = experiment: early growth (after seedling emergence) of Zea mays; settings: for Leaf area / No. of roots / Root dry wt./plant / Root length / Shoot dry wt./plant / Spent seed dry wt.: 15 DAS
Source text: Plastic pots (7.5 cm dia) were filled with 15 g of autoclaved vermiculite. Seeds of corn (Zea mays—Poaceae), bean (Phaseolus vulgaris—Fabaceae), canola (Brassica napus—Brassicaceae), cucumber (Cucumis sativus—Cucurbitaceae), cantaloupe (Cucumis melo—Cucurbitaceae), cotton (Gossypium sp.—Malvaceae), lettuce (Lactuca sativa—Asteraceae), beet (Beta vulgaris—Chenopodiaceae), and soybean (Glycine max—Fabaceae), were placed at 2.5 cm deep at the rate of 5 or 10 seeds per pot. […] Acetonitrile was included as one of the controls since LCO was purified in this solvent (see Example 3), after 4 days the pots were irrigated with 10 mL of water once every two days. Each treatment had 4 replications in a randomized block design. Pots were placed on a green house bench maintained at 25±2° C. with a day/night cycle 16/8 h and relative humidity of 70%, or in a growth chamber set at 15° C. with a 16:8 day/night cycle. The percent seedling emergence was recorded at 4 days after sowing (DAS). Plant height was recorded from 4 DAS to 15 DAS. Plants were harvested at 15 DAS and leaf area, root length and the number of roots per plant were recorded. The plants were then dissected and placed in paper covers and dried at 90° C. for 24 h and the dry weights of roots, shoots and the spent seeds recorded. The data were analyzed with the Statistical Analysis System version 6.12 (SAS institute Inc. Cary, N.C., USA).

corn (Zea mays L.) = experiment: germination of corn after 72 h of treatment (petri plate); settings: 25° C.
Description: Seeds of corn (cv Pioneer 3921) were surface sterilized in 2% sodium hypochlorite solution for 2 minutes and placed in 9 cm diameter Petri plates containing a sheet of filter paper soaked in 10 ml of the required test solution (LCO 10^−5–10^−13). Water served as the control. Observations on germination, length of root primodia and shoot were taken after 72 h of incubation at 25° C. The data was analyzed for significance by an ANOVA protected LSD test using SAS system Version 6.1 (SAS Inc., Cary, N.C., USA).

Beet = experiment: seedling emergence under field condition; settings: six days after planting
Description: (§1) Seeds were surface sterilized with 2% sodium hypochlorite and soaked in different concentrations (10^−5, 10^−7, 10^−9M) of LCO solution for 12 h. Water served as the control. The study was conducted at the experimental field of the Macdonald campus of McGill University, Ste-Anne-de-Belleveue. Quebec, Canada. The field was ploughed to a fine tilth, seeds were hand planted in 1 m rows at 2.5 to 3 cm deep with three replications per treatment. […] The data was analyzed for significance by an ANOVA protected LSD test using SAS system Version 6.1 (SAS Inc., Cary, N.C., USA).

Corn = experiment: seedling emergence under field condition; settings: six days after planting
Description: as §1

Cotton = experiment: seedling emergence under field condition; settings: for seedling emergence under field condition: Cotton, six days after planting
Description: as §1

Soybean = experiment: seedling emergence under field condition; settings: six days after planting
Description: as §1

CCCCCCC=CCCCCCCCCCC(=O)NC1C(OC2C(CO)OC(OC3C(CO)OC(OC4C(CO)OC(OC5C(COC6OC(C)C(O)C(O)C6OC)OC(O)C(NC(C)=O)C5O)C(NC(C)=O)C4O)C(NC(C)=O)C3O)C(NC(C)=O)C2O)OC(CO)C(O)C1O (centres unmarked) [LCO, NodBj-V(C18:1Δ11)]
Plant height at 15 DAS (Zea mays; LCO 10−^5): 102.9 c mm
Leaf area (Zea mays; LCO 10−^5): 11.7 cd cm^2
No. of roots (Zea mays; LCO 10−^5): 6.8 cd
Root dry wt./plant (Zea mays; LCO 10−^5): 75.7 cd mg
Root length (Zea mays; LCO 10−^5): 137.0 cd mm
Shoot dry wt./plant (Zea mays; LCO 10−^5): 41.6 bcd mg
Spent seed dry wt. (Zea mays; LCO 10−^5): 123.5 bc mg
Plant height at 15 DAS (Zea mays; LCO 10−^6): 130.4 ab mm
Leaf area (Zea mays; LCO 10−^6): 18.2 a cm^2
No. of roots (Zea mays; LCO 10−^6): 7.66 abc
Root dry wt./plant (Zea mays; LCO 10−^6): 85.1 bc mg
Root length (Zea mays; LCO 10−^6): 150.8 bc mm
Shoot dry wt./plant (Zea mays; LCO 10−^6): 51.4 b mg
Spent seed dry wt. (Zea mays; LCO 10−^6): 90.7 cd mg
Plant height at 15 DAS (Zea mays; LCO 10−^7): 130.1 ab mm
Leaf area (Zea mays; LCO 10−^7): 15.7 ab cm^2
No. of roots (Zea mays; LCO 10−^7): 8.0 ab
Root dry wt./plant (Zea mays; LCO 10−^7): 96.5 ab mg
Root length (Zea mays; LCO 10−^7): 153.9 b mm
Shoot dry wt./plant (Zea mays; LCO 10−^7): 51.6 b mg
Spent seed dry wt. (Zea mays; LCO 10−^7): 99.5 cd mg
Plant height at 15 DAS (Zea mays; LCO 10−^8): 142.6 a mm
Leaf area (Zea mays; LCO 10−^8): 19.3 a cm^2
No. of roots (Zea mays; LCO 10−^8): 8.4 a
Root dry wt./plant (Zea mays; LCO 10−^8): 103.4 a mg
Root length (Zea mays; LCO 10−^8): 187.0 a mm
Shoot dry wt./plant (Zea mays; LCO 10−^8): 66.2 a mg
Spent seed dry wt. (Zea mays; LCO 10−^8): 76.3 mg·days
Plant height at 15 DAS (Zea mays; LCO 10−^9): 134.7 ab mm
Leaf area (Zea mays; LCO 10−^9): 17.0 ab cm^2
No. of roots (Zea mays; LCO 10−^9): 7.75 abc
Root dry wt./plant (Zea mays; LCO 10−^9): 83.3 bc mg
Root length (Zea mays; LCO 10−^9): 144.4 cbd mm
Shoot dry wt./plant (Zea mays; LCO 10−^9): 46.8 bc mg
Spent seed dry wt. (Zea mays; LCO 10−^9): 93.7 cd mg
Plant height at 15 DAS (Zea mays; LCO 10−^10): 127.1 b mm
Leaf area (Zea mays; LCO 10−^10): 13.9 bc cm^2
No. of roots (Zea mays; LCO 10−^10): 7.95 ab
Root dry wt./plant (Zea mays; LCO 10−^10): 89.5 abc mg
Root length (Zea mays; LCO 10−^10): 149.1 bc mm
Shoot dry wt./plant (Zea mays; LCO 10−^10): 51.4 b mg
Spent seed dry wt. (Zea mays; LCO 10−^10): 89.8 cd mg
Plant height at 15 DAS (Zea mays; LCO 10−^11): 103.3 mm
Leaf area (Zea mays; LCO 10−^11): 8.51 def cm^2
No. of roots (Zea mays; LCO 10−^11): 6.69 cd
Root dry wt./plant (Zea mays; LCO 10−^11): 74.6 cd mg
Root length (Zea mays; LCO 10−^11): 132.1 d mm
Shoot dry wt./plant (Zea mays; LCO 10−^11): 38.0 cde mg
Spent seed dry wt. (Zea mays; LCO 10−^11): 115.9 bc mg
Plant height at 15 DAS (Zea mays; LCO 10−^12): 98.3 c mm
Leaf area (Zea mays; LCO 10−^12): 8.0 def cm^2
No. of roots (Zea mays; LCO 10−^12): 7.25
Root dry wt./plant (Zea mays; LCO 10−^12): 84.6 bc mg
Root length (Zea mays; LCO 10−^12): 137.9 cd mm
Shoot dry wt./plant (Zea mays; LCO 10−^12): 40.6 bcde mg
Spent seed dry wt. (Zea mays; LCO 10−^12): 105.4 od mg
Plant height at 15 DAS (Zea mays; LCO 10−^13): 91.8 cd mm
Leaf area (Zea mays; LCO 10−^13): 10.4 cde cm^2
No. of roots (Zea mays; LCO 10−^13): 6.7 cd
Root dry wt./plant (Zea mays; LCO 10−^13): 85.4 bc mg
Root length (Zea mays; LCO 10−^13): 130.9 d mm
Shoot dry wt./plant (Zea mays; LCO 10−^13): 43.6 bc mg
Spent seed dry wt. (Zea mays; LCO 10−^13): 109.6 cd mg
Plant height at 15 DAS (Zea mays; LCO 10−^14): 99.9 c mm
Leaf area (Zea mays; LCO 10−^14): 11.2 cde cm^2
No. of roots (Zea mays; LCO 10−^14): 7.36 abc
Root dry wt./plant (Zea mays; LCO 10−^14): 90.2 abc mg
Root length (Zea mays; LCO 10−^14): 136.8 cd mm
Shoot dry wt./plant (Zea mays; LCO 10−^14): 46.6 bc mg
Spent seed dry wt. (Zea mays; LCO 10−^14): 102.9 cd mg
α-amylase activity in the treated seeds (Zea mays; corn seeds): dramatic increase
start of seedling emergence after seeding (Zea mays; corn, control 3–4 days): 2 to 3 days
LCO concentration of optimum effect (Zea mays; early growth of corn (Table 3)): 10^−8 M
Length of root primodia (corn (Zea mays L.); LCO 10^−5 M): 53.0 ab mm
Length of shoot primodia (corn (Zea mays L.); LCO 10^−5 M): 12.3 ab mm
Percent germination (corn (Zea mays L.); LCO 10^−5 M): 80 bc Percent
Length of root primodia (corn (Zea mays L.); LCO 10^−7 M): 57.6 bc mm
Length of shoot primodia (corn (Zea mays L.); LCO 10^−7 M): 15.0 ab mm
Percent germination (corn (Zea mays L.); LCO 10^−7 M): 73.3 b Percent
Length of root primodia (corn (Zea mays L.); LCO 10^−9 M): 48.0 ab mm
Length of shoot primodia (corn (Zea mays L.); LCO 10^−9 M): 9.6 a mm
Percent germination (corn (Zea mays L.); LCO 10^−9 M): 73.3 b Percent
Length of root primodia (corn (Zea mays L.); LCO 10^−11 M): 78.6 c mm
Length of shoot primodia (corn (Zea mays L.); LCO 10^−11 M): 21.0 b mm
Percent germination (corn (Zea mays L.); LCO 10^−11 M): 100 c Percent
Length of root primodia (corn (Zea mays L.); LCO 10^−13 M): 43.0 bc mm
Length of shoot primodia (corn (Zea mays L.); LCO 10^−13 M): 8.3 a mm
Percent germination (corn (Zea mays L.); LCO 10^−13 M): 80 bc Percent
seedling emergence under field condition (Beet; 10^−7 M seed soak 12 h): 46.6 c
seedling emergence under field condition (Beet; LCO 10^−5 M seed soak 12 h): 28.3 a
seedling emergence under field condition (Beet; LCO 10^−9 M seed soak 12 h): 38.3 ab
seedling emergence under field condition (Corn; 10^−7 M seed soak 12 h): 60.0 b
seedling emergence under field condition (Corn; LCO 10^−5 M seed soak 12 h): 80.0 b
seedling emergence under field condition (Corn; LCO 10^−9 M seed soak 12 h): 53.3 b
seedling emergence under field condition (Cotton; 10^−7 M seed soak 12 h): 60.0 b
seedling emergence under field condition (Cotton; LCO 10^−5 M seed soak 12 h): 16.6 a
seedling emergence under field condition (Cotton; LCO 10^−9 M seed soak 12 h): 23.3 a
improvement of emergence as compared to the control (Cotton; cotton, LCO at 10^−7M, field): more than 9 times
seedling emergence under field condition (Soybean; 10^−7 M seed soak 12 h): 33.3 b
seedling emergence under field condition (Soybean; LCO 10^−5 M seed soak 12 h): 26.6 ab
seedling emergence under field condition (Soybean; LCO 10^−9 M seed soak 12 h): 63.3 c
